pIC50: −log10 of the molar value. Read-outs that look alike come from different tables or passages of the source.
Columns and labels:
VIM-1 = VIM-1 (Pseudomonas aeruginosa (strain ATCC 15692 / DSM 22644 / CIP 104116 / JCM 14847 / LMG 12228 / 1C / PRS 101 / PAO1), UniProt A0A0F7KYQ8); test: biochemical; settings: CCF2-FA substrate, 30 pM enzyme, 2 hours at 25° C.
In short: (§1)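 Class B activity is measured in the presence of compound by fluorescence with CCF2-FA after a 2-hour incubation at 25° C. IC50 is taken from a 4-parameter fit of semi-logarithmic dose-response data.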

[1] = system: Serratia marcescens expressing IMP-1 (CL5741); format: cell-based; settings: IMP-1 strain CL5741, with imipenem 1 μg/ml, 95% inhibition of growth
In short: (§2)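 Colonies grown overnight on blood agar at 35° C were suspended in saline, diluted 1:100 into 1.1×CAMHB and dispensed. Imipenem was added to 1 μg/ml, then test compound. After 22 hours to 24 hours at 35° C, absorbance was recorded.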

[2] = system: Escherichia coli expressing NDM-1 (CLB30005, CLB30016); format: cell-based; settings: NDM-1 strain, with imipenem 1 μg/ml, 95% inhibition of growth
In short: as §2

[3] = system: Klebsiella pneumoniae expressing VIM-1 (IHMA599644); format: cell-based; settings: VIM-1 strain IHMA599644, with imipenem 1 μg/ml, 95% inhibition of growth
In short: as §2

IMP-1 = IMP-1 (Serratia marcescens, UniProt P52699); test: biochemical; format: biochemical; settings: fluorescence assay, CCF2-FA substrate, 2 pM enzyme, 2 hours at 25° C.; read-out: IMP-1 IC50
Sequence of IMP-1 (P52699 whole entry, looked up, species assumed): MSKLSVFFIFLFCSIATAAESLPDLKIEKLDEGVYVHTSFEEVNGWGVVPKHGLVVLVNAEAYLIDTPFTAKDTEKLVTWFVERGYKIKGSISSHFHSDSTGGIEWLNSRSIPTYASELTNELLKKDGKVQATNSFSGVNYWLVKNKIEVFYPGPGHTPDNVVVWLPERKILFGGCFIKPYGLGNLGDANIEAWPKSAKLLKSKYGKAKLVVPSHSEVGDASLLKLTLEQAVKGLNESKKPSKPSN
In short: as §1

NDM-1 = NDM-1 (Klebsiella pneumoniae, UniProt C7C422); test: biochemical; format: biochemical; settings: fluorescence assay, CCF2-FA substrate, 1 pM enzyme, 2 hours at 25° C.; read-out: NDM-1 IC50
Sequence of NDM-1 (C7C422 whole entry, looked up, species assumed): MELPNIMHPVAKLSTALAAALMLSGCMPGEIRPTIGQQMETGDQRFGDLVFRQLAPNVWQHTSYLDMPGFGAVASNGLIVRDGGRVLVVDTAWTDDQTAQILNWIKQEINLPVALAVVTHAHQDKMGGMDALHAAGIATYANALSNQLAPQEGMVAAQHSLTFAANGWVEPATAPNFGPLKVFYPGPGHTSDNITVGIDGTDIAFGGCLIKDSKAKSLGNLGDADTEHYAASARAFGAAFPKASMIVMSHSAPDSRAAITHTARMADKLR
In short: as §1

[4] = system: Pseudomonas aeruginosa MB9798 vs MB9799; settings: ratio MITC95 PA_9798/MITC95 PA_9799
In short: (§3)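 Steps: add fixed imipenem and/or ceftazidime (usually CLSI breakpoint) and fixed AmpC-directed class A/C inhibitor to microbroth MIC wells; titrate MBL inhibitor; record concentration regaining susceptibility for each PAO1-derived strain; divide efflux+ by efflux− value.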

[5] = system: Pseudomonas aeruginosa efflux− (MB9799), IMP-1; format: cell-based; settings: concentration restoring susceptibility to imipenem at 2 μg/mL in the presence of a class A, C, D serine β-lactamase inhibitor closely related to relebactam
In short: as §3

[6] = system: Pseudomonas aeruginosa efflux+ (MB9798), IMP-1; format: cell-based; settings: concentration restoring susceptibility to imipenem at 2 μg/mL in the presence of a class A, C, D serine β-lactamase inhibitor closely related to relebactam
In short: as §3

[7] = fluorescence assay, read-out: VIM-1 IC50

| Structure (SMILES) | pIC50 (VIM-1; VIM-1 IC50, fluorescence assay) | Serratia marcescens MITC95 [1] | Escherichia coli MITC95 [2] | Klebsiella pneumoniae MITC95 [3] | pIC50 (IMP-1) | pIC50 (NDM-1) | Efflux ratio [4] | P. aeruginosa expressing IMP-1, efflux − (MB9799) MITC95 [5] | P. aeruginosa expressing IMP-1, efflux + (MB9798) MITC95 [6] | pIC50 (VIM-1; [7]) |
| --- | --- | --- | --- | --- | --- | --- | --- | --- | --- | --- |
| Nc1ccc(-c2ccc(S(=O)(=O)NC[C@@H]3CNCCN3)c(S(N)(=O)=O)c2-c2nn[nH]n2)cn1 [Example 312, (S)-4-(6-aminopyridin-3-yl)-N1-(piperazin-2-ylmethyl)-3-(2H-tetrazol-5-yl)benzene-1,2-disulfonamide] | 9.55 | 0.7813 µM | 0.3906 µM | 3.125 µM | 9.23 | 9.67 | 1.00 | 1.563 µM | 1.563 µM |  |
| Nc1ncccc1-c1ccc(S(=O)(=O)NC[C@@H]2CNCCN2)c(S(N)(=O)=O)c1-c1nn[nH]n1 [Example 313, (S)-4-(2-aminopyridin-3-yl)-N1-(piperazin-2-ylmethyl)-3-(2H-tetrazol-5-yl)benzene-1,2-disulfonamide] | 9.83 | 0.7813 µM | 0.3906 µM | 3.125 µM | 8.89 | 10.09 | 2.00 | 1.563 µM | 3.125 µM |  |
| Nc1nc2c(-c3ccc(S(=O)(=O)NC[C@H]4CNCCN4)c(S(N)(=O)=O)c3-c3nn[nH]n3)cccc2[nH]1 [Example 314, (R)-4-(2-amino-1H-benzo[d]imidazol-4-yl)-N1-(piperazin-2-ylmethyl)-3-(2H-tetrazol-5-yl)benzene-1,2-disulfonamide] |  | 1.563 µM | 0.7813 µM | 1.563 µM | 9.31 | 10.49 | 1.00 | 0.7813 µM | 0.7813 µM | 9.94 |
| Nc1ccc(-c2ccc(S(=O)(=O)NC[C@H]3CNCCN3)c(S(N)(=O)=O)c2-c2nn[nH]n2)cn1 [Example 315, (R)-4-(6-aminopyridin-3-yl)-N1-(piperazin-2-ylmethyl)-3-(1H-tetrazol-5-yl)benzene-1,2-disulfonamide] | 9.68 | 0.7813 µM | 0.3906 µM | 6.25 µM | 9.34 | 9.77 | 1.00 | 1.563 µM | 1.563 µM |  |
| Nc1ncccc1-c1ccc(S(=O)(=O)NC[C@H]2CNCCN2)c(S(N)(=O)=O)c1-c1nn[nH]n1 [Example 316, (R)-4-(2-aminopyridin-3-yl)-N1-(piperazin-2-ylmethyl)-3-(1H-tetrazol-5-yl)benzene-1,2-disulfonamide] | 9.67 | 0.7813 µM | 0.3906 µM | 6.25 µM | 8.63 | 9.76 | 2.00 | 1.563 µM | 3.125 µM |  |
| C[C@H](CN)NS(=O)(=O)c1ccc(-c2ccnc(N)c2)c(-c2nn[nH]n2)c1S(N)(=O)=O [Example 317, (R)—N1-(1-aminopropan-2-yl)-4-(2-aminopyridin-4-yl)-3-(2H -tetrazol-5-yl) benzene-1,2-disulfonamide] |  | 1.563 µM | 0.7813 µM | 3.125 µM | 9.31 | 9.77 | 0.50 | 3.125 µM | 1.563 µM | 9.88 |
